The text below walks through data of US12447165B2, “Intratumoral vein-formation promoting agent” (OSAKA UNIVERSITY, priority 2016, dated 2025).

Experiment [1] deals with LLC cells. Put plainly: Various phosphatidylcholines: intratumoral lymphocyte infiltration, LLC cancer-bearing mice (Example 9). It is filed as in vivo, mouse. The settings on record: LLC tumor; PC 3 mg/kg i.v. once daily day 7 to 13; harvested day 14; CD4- and CD8-positive cells. From the text:
The PCs of Group A were dioctanoyl phosphatidylcholine (Avanti POLAR LIPIDS), dimyristoyl phosphatidylcholine (Nippon Fine Chemical), distearoyl phosphatidylcholine (Nippon Fine Chemical), dioleoyl phosphatidylcholine (Nippon Fine Chemical) and dilinoleoyl phosphatidylcholine (Avanti POLAR LIPIDS). The PCs of Group B were (1-palmitoyl-2-myristoyl) phosphatidylcholine (Avanti POLAR LIPIDS) and (1-palmitoyl-2-oleoyl) phosphatidylcholine (Avanti POLAR LIPIDS).
In the same manner as in Example 1, LLC cells ([…] cells in 100 μL of PBS per animal) were subcutaneously injected into C57BL/6NCrSlc mice aged 8 weeks (females, SLC, Inc.) to generate cancer-bearing mice. For 7 consecutive days from day 7 to day 13 post-cancer cell inoculation, the PCs indicated above were administered at a dose of 3 mg/kg (100 μL) once daily via the mouse tail vein. The vehicle was administered to the mice of the control group. On the day following the final administration (day 14 post-inoculation), the tumors were harvested from the mice. In the same manner as in Example 1, tumor tissue sections were prepared, tumor vasculature was observed, and intratumoral lymphocyte infiltration was examined.

Experiment [2] concerns human umbilical vein endothelial cells (HUVECs). Put plainly: Tubulogenesis of cultured HUVECs on Matrigel with VEGF (Examples 13 and 14). It counts as cell-based. The following applies: HUVEC on Matrigel, Example 14. The procedure:
Each well of a 48-well plate was coated with 200 μL of Matrigel (BD biosciences), and human umbilical vein endothelial cells (HUVECs; Kurabo Industries Ltd.) were seeded at 5×10^4 cells/200 μL/well and cultured. For the culture, HuMedia-EB2 medium (Kurabo Industries, Ltd.) supplemented with 1% FCS was used. VEGF (recombinant human VEGF165, Peprotech) was added at a final concentration of 10 ng/mL to the culture medium to induce tubulogenesis of the vascular endothelial cells. Soybean PC was also added at 10 μM concomitantly with VEGF. At 12 to 16 hours after the start of the culture, the cells were photographed under a microscope. In addition, Hoechst (Boehringer Ingelheim) was added to stain cell nuclei, and newly formed blood vessels were observed. The wells not containing the soybean PC were used as a control.
The same experiment as in Example 12 was performed using soybean PC and other 8 types of PCs. The PCs were classified as Group A or B as with Example 8. The PCs used were as follows (see Table 2).

In experiment [3] the test system is intratumoral vessels. Put plainly: Phosphatidylcholine administration to lysophosphatidic acid receptor 4-deficient mice. It counts as in vivo, mouse. From the text: Lysophosphatidic acid is enzymatically synthesized from lysophosphatidylcholine, which is produced by enzymatic decomposition of phosphatidylcholine. Considering this, there was a possibility that the newly discovered effects of phosphatidylcholine might be underlain by the mechanism that the administered phosphatidylcholine undergoes in vivo decomposition into lysophosphatidic acid, which activates a lysophosphatidic acid receptor and thereby produces the effects. However, the structural improvement of intratumoral vessels and the promotion of immune cell infiltration after phosphatidylcholine administration were not observed after lysophosphatidyicholine administration (see Reference Example 1). […] Therefore, the effects of phosphatidylcholine were proven not to be mediated by a lysophosphatidic acid receptor.

The test system of experiment [4] is LLC cells. Put plainly: Tumor volume, combination of soybean PC and 5-FU, LLC cancer-bearing mice (Example 12). It is filed as in vivo, mouse. The settings on record: soybean PC 3 mg/kg i.v. daily day 7 to 20, 5-FU 20 mg/kg i.p. day 7 and 14, volume to day 21. The procedure:
LLC cells (1×10^6 cells in 100 μL of PBS per animal) were subcutaneously injected into C57BL/6NCrSlc mice aged 8 weeks (females, SLC, Inc.) to generate cancer-bearing mice. The mice were assigned to 4 groups: a soybean PC group, a 5-FU group, a soybean PC plus 5-FU group, and a control group (vehicle administration group) (3 animals per group). For the soybean PC group and the soybean PC plus 5-FU group, in the same manner as in Example 1, 3 mg/kg (100 μL) of the soybean PC was administered once daily via the mouse tail vein for […] from day 7 to day 20 post-cancer cell inoculation. For the 5-FU group and the soybean PC plus 5-FU group, 5-FU (Kyowa Hakko Kirin Co., Ltd.) was intraperitoneally administered at a dose of 20 mg/kg on day 7 and day 14 post-cancer cell inoculation. Tumor volume was measured on day 7, day 14 and day 21 post-cancer cell inoculation. The tumor volume was calculated by the following formula: length×width×height×0.5.

Regarding `CCCCCCCCCCCCCCCCCC(=O)OC[C@H](COP(=O)([O-])OCC[N+](C)(C)C)OC(=O)CCCCCCCCCCCCCCCCC` [Distearoyl phosphatidylcholine, distearoyl phosphatidylcholine], the “Lymphocyte Infiltration” value in experiment [1] was “yes”. Besides, the Vein-like morphological change result in experiment [2] is listed as “yes”.
Consider phosphatidylcholine, for which, in experiment [3], the immune cell infiltration result is “promoted immune cell infiltration” and the “structure of intratumoral vessels” value was “improved the structure of intratumoral vessels”.
As for `CCCCCCCCCCCCCC(=O)OC[C@H](COP(=O)([O-])OCC[N+](C)(C)C)OC(=O)CCCCCCCCCCCCC` [Dimyristoyl phosphatidylcholine, dimyristoyl phosphatidylcholine], in experiment [1], the “Lymphocyte Infiltration” value is “yes”. For the same compound, the Vein-like morphological change entry in experiment [2] was “yes”.
As to `CCCCCCCC(=O)OCC(COP(=O)([O-])OCC[N+](C)(C)C)OC(=O)CCCCCCC` (stereo not drawn) [Dioctanoyl phosphatidylcholine, dioctanoyl phosphatidylcholine], the “Lymphocyte Infiltration” value in experiment [1] is listed as “yes”. Moreover, in experiment [2], the Vein-like morphological change entry is “yes”.
As to `CCCCCCCC/C=C\CCCCCCCC(=O)OC[C@H](COP(=O)([O-])OCC[N+](C)(C)C)OC(=O)CCCCCCC/C=C\CCCCCCCC` [Dioleoyl phosphatidylcholine, dioleoyl phosphatidylcholine], the “Lymphocyte Infiltration” value in experiment [1] is reported as “yes”. In addition, the Vein-like morphological change result in experiment [2] is given as “yes”.
On to `CCCCC/C=C\C/C=C\CCCCCCCC(=O)OC[C@H](COP(=O)([O-])OCC[N+](C)(C)C)OC(=O)CCCCCCC/C=C\C/C=C\CCCCC` [Dilinoleoyl phosphatidylcholine, dilinoleoyl phosphatidylcholine], for which the “Lymphocyte Infiltration” value in experiment [1] is on record as “yes”. The Vein-like morphological change result in experiment [2] is “yes”.
On to `CCCCCCCC/C=C\CCCCCCCC(=O)O[C@H](COC(=O)CCCCCCCCCCCCCCC)COP(=O)([O-])OCC[N+](C)(C)C` [(1-palmitoyl-2-oleoyl) phosphatidylcholine], for which the “Lymphocyte Infiltration” value in experiment [1] is “yes”. Besides, the Vein-like morphological change result in experiment [2] was “yes”.
For `CCCCCCCCCCCCCCCC(=O)OC[C@H](COP(=O)([O-])OCC[N+](C)(C)C)OC(=O)CCCCCCCCCCCCC` [(1-palmitoyl-2-myristoyl) phosphatidylcholine], in experiment [1], the “Lymphocyte Infiltration” value is recorded as “yes”. Further, the Vein-like morphological change result in experiment [2] is on record as “yes”.
For the compound `CC/C=C\C/C=C\C/C=C\C/C=C\C/C=C\C/C=C\CCC(=O)OC[C@H](COP(=O)([O-])OCC[N+](C)(C)C)OC(=O)CC/C=C\C/C=C\C/C=C\C/C=C\C/C=C\C/C=C\CC` [Didocosahexaenoyl phosphatidylcholine, didocosahexaenoyl phosphatidylcholine], the Vein-like morphological change result in experiment [2] is recorded as “yes”.
Consider `O=c1[nH]cc(F)c(=O)[nH]1` [5-FU], for which, in experiment [4], the “tumor volume (tumor growth) as compared with the control group” value is given as “tumor growth inhibition”.
